Experimental data reported in publication PMC11270923 (BMC Chemistry, 2024).

Experiment: Shake-flask solubility of acetaminophen in aqueous protic ionic liquid solutions (UV-vis at 243 nm)
Type: physicochemical
Procedure: The experimental solubility results were determined using a variety of techniques, including the shake-flask method. Aqueous binary mixtures based on PILs have been made utilizing an analytical balance with a 10^–4 g precision for determining the solubility results. Glass vials with a specific amount of water + PILs were filled with the extra acetaminophen. Following that, the samples were combined for 3 h and left for three days in a water bath thermostat (ED, Julabo Co., Germany) with temperature control and an uncertainty of 0.01 K. To separate the liquid and solid phases, a Hettich D-7200 centrifuge was employed (with 4000 RPM at room temperature at 10 min). An ethanol + water solution was applied to dilute the liquid phase after the saturated solutions were filtered through a […] PTFE filter. Subsequently, the drug concentration in the solutions was ascertained using a calibration curve and a UV–vis spectrometer at 243 nm.

solubility 10^5x1^exp (water+[DEA]La w3=0.0000 298.15 K 866 hPa): 1.839 mole fraction x10^5
solubility 10^5x1^exp (water+[DEA]La w3=0.0000 303.15 K 866 hPa): 2.239 mole fraction x10^5
solubility 10^5x1^exp (water+[DEA]La w3=0.0000 308.15 K 866 hPa): 2.545 mole fraction x10^5
solubility 10^5x1^exp (water+[DEA]La w3=0.0000 313.15 K 866 hPa): 3.009 mole fraction x10^5
solubility 10^5x1^exp (water+[DEA]La w3=0.0200 298.15 K 866 hPa): 2.492 mole fraction x10^5
solubility 10^5x1^exp (water+[DEA]La w3=0.0200 303.15 K 866 hPa): 3.159 mole fraction x10^5
solubility 10^5x1^exp (water+[DEA]La w3=0.0200 308.15 K 866 hPa): 3.555 mole fraction x10^5
solubility 10^5x1^exp (water+[DEA]La w3=0.0200 313.15 K 866 hPa): 3.722 mole fraction x10^5
solubility 10^5x1^exp (water+[DEA]La w3=0.0500 298.15 K 866 hPa): 3.181 mole fraction x10^5
solubility 10^5x1^exp (water+[DEA]La w3=0.0500 303.15 K 866 hPa): 3.576 mole fraction x10^5
solubility 10^5x1^exp (water+[DEA]La w3=0.0500 308.15 K 866 hPa): 3.917 mole fraction x10^5
solubility 10^5x1^exp (water+[DEA]La w3=0.0500 313.15 K 866 hPa): 4.227 mole fraction x10^5
solubility 10^5x1^exp (water+[DEA]La w3=0.0700 298.15 K 866 hPa): 3.452 mole fraction x10^5
solubility 10^5x1^exp (water+[DEA]La w3=0.0700 303.15 K 866 hPa): 3.977 mole fraction x10^5
solubility 10^5x1^exp (water+[DEA]La w3=0.0700 308.15 K 866 hPa): 4.167 mole fraction x10^5
solubility 10^5x1^exp (water+[DEA]La w3=0.0700 313.15 K 866 hPa): 4.514 mole fraction x10^5
solubility 10^5x1^exp (water+[DEA]La w3=0.1000 298.15 K 866 hPa): 3.849 mole fraction x10^5
solubility 10^5x1^exp (water+[DEA]La w3=0.1000 303.15 K 866 hPa): 4.220 mole fraction x10^5
solubility 10^5x1^exp (water+[DEA]La w3=0.1000 308.15 K 866 hPa): 4.793 mole fraction x10^5
solubility 10^5x1^exp (water+[DEA]La w3=0.1000 313.15 K 866 hPa): 5.266 mole fraction x10^5
solubility 10^5x1^exp (water+[DEA]La w3=0.1500 298.15 K 866 hPa): 4.290 mole fraction x10^5
solubility 10^5x1^exp (water+[DEA]La w3=0.1500 303.15 K 866 hPa): 4.611 mole fraction x10^5
solubility 10^5x1^exp (water+[DEA]La w3=0.1500 308.15 K 866 hPa): 5.038 mole fraction x10^5
solubility 10^5x1^exp (water+[DEA]La w3=0.1500 313.15 K 866 hPa): 5.633 mole fraction x10^5
solubility 10^5x1^exp (water+[DEA]La w3=0.2000 298.15 K 866 hPa): 4.669 mole fraction x10^5
solubility 10^5x1^exp (water+[DEA]La w3=0.2000 303.15 K 866 hPa): 5.223 mole fraction x10^5
solubility 10^5x1^exp (water+[DEA]La w3=0.2000 308.15 K 866 hPa): 5.710 mole fraction x10^5
solubility 10^5x1^exp (water+[DEA]La w3=0.2000 313.15 K 866 hPa): 6.188 mole fraction x10^5
solubility 10^5x1^exp (water+[MEA]La w3=0.0000 298.15 K 866 hPa): 1.839 mole fraction x10^5
solubility 10^5x1^exp (water+[MEA]La w3=0.0000 303.15 K 866 hPa): 2.239 mole fraction x10^5
solubility 10^5x1^exp (water+[MEA]La w3=0.0000 308.15 K 866 hPa): 2.545 mole fraction x10^5
solubility 10^5x1^exp (water+[MEA]La w3=0.0000 313.15 K 866 hPa): 3.009 mole fraction x10^5
solubility 10^5x1^exp (water+[MEA]La w3=0.0200 298.15 K 866 hPa): 2.750 mole fraction x10^5
solubility 10^5x1^exp (water+[MEA]La w3=0.0200 303.15 K 866 hPa): 3.417 mole fraction x10^5
solubility 10^5x1^exp (water+[MEA]La w3=0.0200 308.15 K 866 hPa): 3.802 mole fraction x10^5
solubility 10^5x1^exp (water+[MEA]La w3=0.0200 313.15 K 866 hPa): 4.007 mole fraction x10^5
solubility 10^5x1^exp (water+[MEA]La w3=0.0500 298.15 K 866 hPa): 3.256 mole fraction x10^5
solubility 10^5x1^exp (water+[MEA]La w3=0.0500 303.15 K 866 hPa): 3.861 mole fraction x10^5
solubility 10^5x1^exp (water+[MEA]La w3=0.0500 308.15 K 866 hPa): 4.055 mole fraction x10^5
solubility 10^5x1^exp (water+[MEA]La w3=0.0500 313.15 K 866 hPa): 4.320 mole fraction x10^5
solubility 10^5x1^exp (water+[MEA]La w3=0.0700 298.15 K 866 hPa): 3.884 mole fraction x10^5
solubility 10^5x1^exp (water+[MEA]La w3=0.0700 303.15 K 866 hPa): 4.588 mole fraction x10^5
solubility 10^5x1^exp (water+[MEA]La w3=0.0700 308.15 K 866 hPa): 4.675 mole fraction x10^5
solubility 10^5x1^exp (water+[MEA]La w3=0.0700 313.15 K 866 hPa): 5.025 mole fraction x10^5
solubility 10^5x1^exp (water+[MEA]La w3=0.1000 298.15 K 866 hPa): 4.380 mole fraction x10^5
solubility 10^5x1^exp (water+[MEA]La w3=0.1000 303.15 K 866 hPa): 4.807 mole fraction x10^5
solubility 10^5x1^exp (water+[MEA]La w3=0.1000 308.15 K 866 hPa): 5.407 mole fraction x10^5
solubility 10^5x1^exp (water+[MEA]La w3=0.1000 313.15 K 866 hPa): 5.600 mole fraction x10^5
solubility 10^5x1^exp (water+[MEA]La w3=0.1500 298.15 K 866 hPa): 4.962 mole fraction x10^5
solubility 10^5x1^exp (water+[MEA]La w3=0.1500 303.15 K 866 hPa): 5.658 mole fraction x10^5
solubility 10^5x1^exp (water+[MEA]La w3=0.1500 308.15 K 866 hPa): 6.128 mole fraction x10^5
solubility 10^5x1^exp (water+[MEA]La w3=0.1500 313.15 K 866 hPa): 6.665 mole fraction x10^5
solubility 10^5x1^exp (water+[MEA]La w3=0.2000 298.15 K 866 hPa): 5.589 mole fraction x10^5
solubility 10^5x1^exp (water+[MEA]La w3=0.2000 303.15 K 866 hPa): 6.123 mole fraction x10^5
solubility 10^5x1^exp (water+[MEA]La w3=0.2000 308.15 K 866 hPa): 6.695 mole fraction x10^5
solubility 10^5x1^exp (water+[MEA]La w3=0.2000 313.15 K 866 hPa): 7.337 mole fraction x10^5
solubility 10^5x1^exp (water+[TEA]La w3=0.0000 298.15 K 866 hPa): 1.839 mole fraction x10^5
solubility 10^5x1^exp (water+[TEA]La w3=0.0000 303.15 K 866 hPa): 2.239 mole fraction x10^5
solubility 10^5x1^exp (water+[TEA]La w3=0.0000 308.15 K 866 hPa): 2.545 mole fraction x10^5
solubility 10^5x1^exp (water+[TEA]La w3=0.0000 313.15 K 866 hPa): 3.009 mole fraction x10^5
solubility 10^5x1^exp (water+[TEA]La w3=0.0200 298.15 K 866 hPa): 2.161 mole fraction x10^5
solubility 10^5x1^exp (water+[TEA]La w3=0.0200 303.15 K 866 hPa): 2.632 mole fraction x10^5
solubility 10^5x1^exp (water+[TEA]La w3=0.0200 308.15 K 866 hPa): 2.940 mole fraction x10^5
solubility 10^5x1^exp (water+[TEA]La w3=0.0200 313.15 K 866 hPa): 3.334 mole fraction x10^5
solubility 10^5x1^exp (water+[TEA]La w3=0.0500 298.15 K 866 hPa): 2.597 mole fraction x10^5
solubility 10^5x1^exp (water+[TEA]La w3=0.0500 303.15 K 866 hPa): 2.944 mole fraction x10^5
solubility 10^5x1^exp (water+[TEA]La w3=0.0500 308.15 K 866 hPa): 3.210 mole fraction x10^5
solubility 10^5x1^exp (water+[TEA]La w3=0.0500 313.15 K 866 hPa): 3.521 mole fraction x10^5
solubility 10^5x1^exp (water+[TEA]La w3=0.0700 298.15 K 866 hPa): 2.908 mole fraction x10^5
solubility 10^5x1^exp (water+[TEA]La w3=0.0700 303.15 K 866 hPa): 3.461 mole fraction x10^5
solubility 10^5x1^exp (water+[TEA]La w3=0.0700 308.15 K 866 hPa): 3.584 mole fraction x10^5
solubility 10^5x1^exp (water+[TEA]La w3=0.0700 313.15 K 866 hPa): 3.929 mole fraction x10^5
solubility 10^5x1^exp (water+[TEA]La w3=0.1000 298.15 K 866 hPa): 3.094 mole fraction x10^5
solubility 10^5x1^exp (water+[TEA]La w3=0.1000 303.15 K 866 hPa): 3.834 mole fraction x10^5
solubility 10^5x1^exp (water+[TEA]La w3=0.1000 308.15 K 866 hPa): 4.208 mole fraction x10^5
solubility 10^5x1^exp (water+[TEA]La w3=0.1000 313.15 K 866 hPa): 4.349 mole fraction x10^5
solubility 10^5x1^exp (water+[TEA]La w3=0.1500 298.15 K 866 hPa): 3.958 mole fraction x10^5
solubility 10^5x1^exp (water+[TEA]La w3=0.1500 303.15 K 866 hPa): 4.151 mole fraction x10^5
solubility 10^5x1^exp (water+[TEA]La w3=0.1500 308.15 K 866 hPa): 4.940 mole fraction x10^5
solubility 10^5x1^exp (water+[TEA]La w3=0.1500 313.15 K 866 hPa): 5.167 mole fraction x10^5
solubility 10^5x1^exp (water+[TEA]La w3=0.2000 298.15 K 866 hPa): 4.309 mole fraction x10^5
solubility 10^5x1^exp (water+[TEA]La w3=0.2000 303.15 K 866 hPa): 4.778 mole fraction x10^5
solubility 10^5x1^exp (water+[TEA]La w3=0.2000 308.15 K 866 hPa): 5.362 mole fraction x10^5
solubility 10^5x1^exp (water+[TEA]La w3=0.2000 313.15 K 866 hPa): 5.751 mole fraction x10^5
SMILES: CC(=O)Nc1ccc(O)cc1 [ACP, Acetaminophen]
